US10202408B2, “Prodrugs and methods of use thereof” (Health Innovation Ventures B.V., priority 2012, dated 2019)
Entries after “also recorded” stand apart in the source; their conditions may differ.

Columns and labels:
[1] = test system: HCT116 cells engineered to over-express human aldo-ketoreductase 1C3 (AKR1C3); assay: Low cell density IC50 (SRB) assay, HCT116 wild type versus AKR1C3 over-expressing cells; assay type: cell-based; conditions: 4 h exposure
Procedure: (§1) Compounds were subjected to testing, including low-cell density cytotoxicity assay. Cells (500 cells/well) were seeded in 96-well plates and exposed to prodrug for 4 h, washed, then left to grow for a further 5 days. The SRB assay was employed to determine IC50 values (concentration of prodrug required to inhibit proliferation by 50%). Parental HCT116 cells (HCT116 is a cell line derived from human colon cancer) and cells expressing the example nitroreductase gene nfsA from Escherichia coli were evaluated head-to-head. Parental H1299 cells (H1299 is a cell line derived from lung cancer) and cells expressing the example nitroreductase gene nfsA from Escherichia coli were evaluated head-to-head. Parental HCT116 cells and cells expressing human AKR1C3 were evaluated head-to-head. Parental H1299 cells and cells expressing human AKR1C3 were evaluated head-to-head. In a variation of these assays test compounds were assessed for their ability to give hypoxia-selective cell killing. Here wild type HCT116, H460 (H460 is a cell line derived from lung cancer), H1299 and SiHa cells (SiHa is a cell line derived from cervical cancer) were used in addition to HCT116 cells engineered to over express cytochrome P450 reductase (HCT116 POR), a human one-electron nitroreductase. Low-cell density cytotoxicity assays were performed as above under oxic conditions and compared to experiments where cells were shown 4 h of anoxia during the prodrug exposure period, before being washed free of prodrug and then left to grow for a further 5 days under oxic conditions, as above.

[2] = test system: HCT116 MCLs over-expressing AKR1C3; assay: Multicellular layer (MCL) clonogenic assay, HCT116 wild type versus AKR1C3 over-expressing MCLs; assay type: cell-based, human
Procedure: (§2) In parallel, a three dimensional high-cell density multi-cellular layer (MCL) clonogenic assay was performed. 1×10^6 cells of either 100% HCT-116^WT or containing 97% WT with a minor 3% HCT-116^NTR cell population were seeded into a collagen-coated Teflon microporous membrane and left to grow for 3 days. MCLs were then exposed to prodrug for 5 h. After treatment, MCLs were enzyme dissociated, diluted in fresh medium and plated to determine clonogenic survival. To discriminate clonogenic activator (NTR+) from target (NTR−) colonies, cells were plated in non-selective medium (total cells) and medium containing 1 μM puromycin (activator cells). Colonies were grown for 10 days before staining. Colonies containing >50 cells were counted. A variation of this assay was also used to assess for evidence of AKR1C3-dependent cytotoxicity. Here either 100% HCT-116W^T or 100% HCT-116^AKR1C3 cells were seeded to provide MCLs that were then exposed to prodrug.

[3] = test system: HCT116 cells engineered to over-express E coli NfsA; assay: Low cell density IC50 (SRB) assay, HCT116 wild type versus E coli NfsA over-expressing cells; assay type: cell-based, human
Procedure: as §1

[4] = test system: H1299 cells engineered to over-express E coli NfsA; assay: Low cell density IC50 (SRB) assay, H1299 wild type versus E coli NfsA over-expressing cells; assay type: cell-based, human
Procedure: as §1

[5] = test system: HCT116 MCLs with 3% E coli NfsA-expressing cells; assay: MCL clonogenic bystander assay, HCT116 MCLs seeded with 3% E coli NfsA-expressing cells; assay type: cell-based, human; conditions: 97% wild type HCT116, 3% E coli NfsA-expressing cells
Procedure: as §2

[6] = test system: bacterial nitroreductases from the NfsA and NfsB families; assay: GFP SOS assay with nitroreductase over-expression library; assay type: cell-based, E. coli strain SOS-R4; conditions: 55 candidate nitroreductase library, 6 h challenge
Source text: The method employed the over-expression of a candidate nitroreductase gene from plasmid pUCX in an SOS reporter strain, as first described in Prosser et al., 2010, Biochem Pharmacol 79, 678-687. In order to enhance the sensitivity of the SOS reporter system, an sfiA::GFP reporter construct was integrated into a CDF-based plasmid (which contains a compatible origin of replication with pUCX) to give the pANODuet reporter plasmid for GFP screening. In addition, nfsA, nfsB, azoR, and nemA genes were deleted to minimise background metabolism, and the tolC gene deleted to minimise efflux of test compounds; this strain was designated SOS-R3. Further improvements were obtained by deleting the mdaB, ycaK, and yieF genes to minimise background metabolism, and by introducing transcriptional terminators to the pANODUET reporter plasmid. This final reporter strain was designated SOS-R4.
Stored glycerols of the 55-membered nitroreductase library in SOS-R4 were thawed and used to inoculate overnight cultures (Lysogeny Broth (LB) amended with 100 μg ml^−1 Ampicillin, 50 μg ml^−1 Spectinomycin, 0.4% glucose) that were incubated at 30° C., 200 rpm for 16 h. The next morning the GFP-SOS assay was commenced by inoculation of 195 μl fresh assay media (LB+100 μg ml^−1 Ampicillin, 50 μg ml^−1 Spectinomycin, 0.2% glucose, 50 μM IPTG) with 15 μl of overnight culture in individual wells of a 96-well plate. Plates were incubated at 30° C., 200 rpm for 2.5 h (pre-challenge period), following which cultures were diluted 1:2 by splitting 50:50 into fresh assay media (+DMSO to 0.5% final concentration) and fresh challenge media (assay media+drug to desired concentration, DMSO to 0.5% final concentration) to final volumes of 80 μl apiece in duplicate on a 384-well plate. Plates were incubated at 30° C., 200 rpm for 6 h (challenge period). GFP expression was determined at excitation 488 nm/emission 509 nm. Turbidity was determined by OD600 and fluorescence data from any replicates not found to be within 15% of the median culture turbidity were discarded.

[7] = test system: HCT116, H460, H1299 and SiHa wild type cancer cell lines; assay: Oxic versus anoxic low cell density IC50 assay, wild type cancer cell lines; assay type: cell-based, human; conditions: 4 h anoxia during prodrug exposure versus oxic
Procedure: as §1

[8] = test system: HCT116 POR cell line (over-expressing Cytochrome P450 reductase); assay: Oxic versus anoxic low cell density IC50 assay, HCT116 POR cells; assay type: cell-based, human; conditions: HCT116 POR cell line compared with wild type
Procedure: as §1, with “Low-cell density cytotoxicity assays were performed as above under oxic conditions and compared to experiments where cells were shown 4 h of anoxia during the prodrug exposure period, before being washed free of prodrug and then left to grow for a further 5 days under oxic conditions, as above.” left out

[9] = test system: bacterial nitroreductases from the NfsA and NfsB families; assay: GFP SOS assay with nitroreductase over-expression library; assay type: cell-based, E. coli strain SOS-R4; conditions: single and poly mutated variants of NfsA_Ec, single-mutated variant of NfsA_Bs
[10] = test system: HCT116 tumour xenografts over-expressing Cytochrome P450 reductase; assay: Excision assay with and without radiation, HCT116 POR tumour xenografts; assay type: in vivo, mice; conditions: 1330 μmol/kg, with or without 15Gy radiation
Procedure: (§3) Tumours were grown subcutaneously in the flank of NIH-III mice by inoculating cells grown in tissue culture. Tumours were monitored using electronic calipers. When tumours reached treatment size, mice were randomized to treatment groups (five to seven per group). Compounds were given as single (or BID) intraperitoneal doses alone or 5 min after whole body irradiation (^60Co source). Eighteen hours after treatment, tumours were excised, weighed, minced, dissociated enzymatically, and plated to determine clonogenicity. Clonogens/gram of tissue were calculated relative to controls and effects of treatment were tested for significance (ANOVA with Dunnett's).

[11] = test system: wild type SiHa tumour xenografts; assay: Excision assay with and without radiation, wild type SiHa tumour xenografts; assay type: in vivo, NIH-III nude mice; conditions: for cell killing in combination with radiation versus radiation alone: HCT116 POR and wild type SiHa xenografts, 10 or 15Gy, single (or BID) intraperitoneal dose; for hypoxic cell kill in vivo (log cell kill): with or without 10Gy radiation, 22 at 422, 300 and 11 at 1330, 23 at 1000 umol/kg
Procedure: as §3

[12] = test system: H1299 cells engineered to over-express human aldo-ketoreductase 1C3 (AKR1C3); assay: Low cell density IC50 (SRB) assay, H1299 wild type versus AKR1C3 over-expressing cells; assay type: cell-based; conditions: 4 h exposure
Procedure: as §1

[13] = test system: 15% E coli NfsA-expressing HCT116 xenografts; assay: Tumour growth delay, 15% E coli NfsA-expressing HCT116 xenografts; assay type: in vivo, NIH-III mice; conditions: single dose; 10, 22 and 60 at 1000, 422 and 1330 umol/kg
Procedure: (§4) Animals weighed 18-25 g at the time of tumour inoculation. Tumours were grown subcutaneously on the right flank of mice by inoculating cells grown in tissue culture (1×10^7 cells in 100 uL serum free α-MEM). Tumour sizes were monitored three times weekly using electronic callipers and treatments were initiated once tumour diameter reached ≥7 mm.
(§5) Tumour bearing mice were randomised into the appropriate treatment groups and tumour size and body weight recorded. Test compounds were formulated on the day of the experiment and kept in foil-wrapped tubes out of direct fluorescent light. If recruitment of animals occurred over multiple days, the drug stocks were aliquoted into tubes and frozen once at […] until required. Mice were treated with a single (or BID) dose of prodrug by intraperitoneal injection and thereafter tumour size and body weight was monitored every second day. Tumour volume was calculated as π (l×w×w)/6, where l is the major axis and w is the perpendicular minor axis. Animals were culled when they had reached the appropriate survival endpoint or when body weight loss exceeded 20% of the pre-treatment value.

[14] = test system: 15% E coli NfsA-expressing H1299 xenografts; assay: Tumour growth delay, 15% E coli NfsA-expressing H1299 xenografts; assay type: in vivo, NIH-III mice; conditions: for tumour growth delay: mixed HCT116 and H1299 xenografts, 15% E coli NfsA cells, single (or BID) intraperitoneal dose
Procedure: as §4, §5

[15] = single dose, 10, 22, 60 and 11 at 750, 422, 1330 and 1330 umol/kg

Structure (SMILES)	AKR1C3-mediated cytotoxicity (IC50 wild type versus AKR1C3) [1]	AKR1C3-dependent clonogenic cell kill in MCLs [2]	E coli NfsA-mediated cytotoxicity (IC50 wild type versus NfsA) [3]	E coli NfsA-mediated cytotoxicity (IC50 wild type versus NfsA) [4]	bystander cell killing in MCLs [5]	metabolism by bacterial nitroreductases (SOS response) [6]	hypoxia-dependent cytotoxicity [7]	Hypoxic Cytotoxicity Ratios (HCR) [8]	activity with mutated nitroreductase variants [9]	hypoxic cell kill in vivo (log cell kill) [10]	cell killing in combination with radiation versus radiation alone [11]	hypoxic cell kill in vivo (log cell kill) [11]	AKR1C3-mediated cytotoxicity (IC50 wild type versus AKR1C3) [12]	E coli NfsA mediated anti-tumour efficacy (mean tumour volume) [13]	E coli NfsA mediated anti-tumour efficacy (mean tumour volume) ([14]; 500 umol/kg twice daily (BID), total 1000 umol/kg)	tumour growth delay [14]	E coli NfsA mediated anti-tumour efficacy (mean tumour volume) [14, 15]
CN(CCO)C(=O)c1cc(N(CCBr)CCBr)c(S(C)(=O)=O)cc1[N+](=O)[O-] [compound 14, 5-(bis(2-bromoethyl)amino)-N-(2-hydroxyethyl)-N-methyl-4-(methylsulfonyl)-2-nitrobenzamide]	less susceptible to AKR1C3-mediated cytotoxicity than PR-104A	do not cause AKR1C3-dependant cytotoxicity	produce E coli NfsA-mediated cytotoxicity	produce E coli NfsA-mediated cytotoxicity	display evidence of metabolism by the 3% E coli NfsA-expressing cells with bystander cell killing of the 97% non-expressing neighbour cells	substrates for multiple wild type and mutant bacterial nitroreductases from the NfsA and NfsB families	increased cytotoxicity in cells under hypoxia	Larger HCRs; also recorded: The degree of this effect was increased	demonstrated	–	–	–	–	–	–	–	–
CS(=O)(=O)c1cc([N+](=O)[O-])c(C(=O)NCCOP(=O)(O)O)cc1N(CCBr)CCBr [compound 300, 2-(5-(bis(2-bromoethyl)amino)-4-(methylsulfonyl)-2-nitrobenzamido)ethyl dihydrogen phosphate]	–	–	–	–	–	–	–	–	–	significant hypoxic cell kill in vivo	increased cell killing above what could be achieved with radiation alone	significant hypoxic cell kill in vivo	–	–	–	–	–
CN1CCN(C(=O)c2cc(N(CCBr)CCBr)c(S(C)(=O)=O)cc2[N+](=O)[O-])CC1 [compound 22, (5-(bis(2-bromoethyl)amino)-4-(methylsulfonyl)-2-nitrophenyl)(4-methylpiperazin-1-yl)methanone]	less susceptible to AKR1C3-mediated cytotoxicity than PR-104A	do not cause AKR1C3-dependant cytotoxicity	produce E coli NfsA-mediated cytotoxicity	produce E coli NfsA-mediated cytotoxicity	display evidence of metabolism by the 3% E coli NfsA-expressing cells with bystander cell killing of the 97% non-expressing neighbour cells	substrates for multiple wild type and mutant bacterial nitroreductases from the NfsA and NfsB families	increased cytotoxicity in cells under hypoxia	Larger HCRs; also recorded: The degree of this effect was increased	demonstrated	–	increased cell killing above what could be achieved with radiation alone	significant hypoxic cell kill in vivo	less susceptible to AKR1C3-mediated cytotoxicity than PR-104A	display significant E coli NfsA mediated anti-tumour efficacy	display significant E coli NfsA mediated anti-tumour efficacy	profound tumour growth delay	display significant E coli NfsA mediated anti-tumour efficacy
CN(CCOP(=O)(O)O)C(=O)c1cc(N(CCBr)CCBr)c(S(C)(=O)=O)cc1[N+](=O)[O-] [compound 10, 2-(5-(bis(2-bromoethyl)amino)-N-methyl-4-(methylsulfonyl)-2-nitrobenzamido)ethyl dihydrogen phosphate]	–	–	–	–	–	–	–	–	–	–	–	–	–	display significant E coli NfsA mediated anti-tumour efficacy	–	profound tumour growth delay	display significant E coli NfsA mediated anti-tumour efficacy
CS(=O)(=O)OCCN(CCBr)c1ccc([N+](=O)[O-])cc1C(=O)NCCOP(=O)(O)O [compound 60, 2-((2-bromoethyl)(4-nitro-2-((2-(phosphonooxy)ethyl)carbamoyl)phenyl)amino)ethyl methanesulfonate]	–	–	–	–	–	–	–	–	–	–	–	–	–	display significant E coli NfsA mediated anti-tumour efficacy	–	profound tumour growth delay	display significant E coli NfsA mediated anti-tumour efficacy
